Reference: article PMC5566973 (Frontiers in Pharmacology, 2017)
Where two headings read alike, the source gives them in different places.

Tests used:
[1] = design: method as in Zhang, 2013; Shi et al., 2014; settings: dogs, oral total alkaloid extracts from P. harmala 140 mg/kg; ref Zhang, 2013; Shi et al., 2014; cited from earlier work
SGLT1 = test: Bidirectional transport in MDCK cell monolayers with selective transporter inhibitors or substrates; type: in vitro ADME, canine; settings: dog, with phloridzin 0.5 mM, + Phloridzin 0.5 mM (SGLT1)
Method: (§1) Caco-2, MDCK and MDCK-MRP2 cells were donated by Prof. Yan Xie and Yueming Ma from Shanghai University of Traditional Chinese Medicine. The cells were grown in culture dishes (Corning® Costar, Cambridge, MA, USA) using DMEM supplemented with 10% FBS, 1% NEAA and 1% penicillin-streptomycin solution. The cells were cultured in 5% CO2 and […] with 90% relative humidity at 37°C. The medium was replaced every other day during incubation. The cells were passaged every 3–4 days between 70 and 80% confluence at a 1:5 split ratio using 0.25% trypsin-EDTA. For the transport experiments, the cells from passages between 30 and 45 were seeded at 1 × 10^5 cells/cm^2 onto permeable polycarbonate inserts (0.45 μm pore size, seeding surface of 0.6 cm^2, Millipore, MA, USA) in 24-well plastic plates. The media in the culture plates were changed every other day for the first week after seeding and were replaced daily afterward. […] The cells were used for the transport experiments 21–28 (Caco-2) or 5–7 (MDCK and MDCK-MRP2) days after seeding, and only monolayers with a TEER-value above 420 Ω cm^2 were used during the studies.
(§2) The apical (AP) and basolateral (BL) sides are typical of polarized Caco-2, MDCK and MDCK-MRP2 epithelial cells. Before the experiments, the polarized cell monolayers were washed twice with warm HBSS solution and subsequently preincubated (37°C, 30 min). Afterward, HBSS solution on both sides of the cell monolayers was removed using a mini desktop vacuum pump. […] The final DMSO concentration in the HBSS or drug mixture was below 0.5%. The monolayers were incubated at 37°C, and 100 μL samples were taken at 30, 60, 90, and 120 min from the acceptor compartment and immediately replaced with the same volume of prewarmed fresh blank HBSS. TEER measurements for assessing the membrane integrity took place before and after the experiments.
(§3) The apparent permeability coefficients (Papp) and ER were calculated as Equations (2) and (3): […]
(§4) where dQ/dt is the steady-state flux, A is the membrane surface area, and C0 is the initial drug concentration in the donor compartment. PappBA is the Papp-value measured in BL to AP direction and PappAB is the Papp-value measured in AP to BL direction. It indicated the involvement of an active transport process when the ER-value is above 1.5 (Hubatsch et al., [2007]).

MDR1 = test: as above; type: in vitro ADME, canine; settings: dog; for efflux ratio at 120 min, 2 μM: read-out: ER
Method: as §1, §2, §3, §4

OATs = test: as above; type: in vitro ADME, canine; settings: dog, with cimetidine 0.05 mM (50 μM), + Cimetidine 0.05 mM (OATs)
Method: as §1, §2, §3, §4

BCRP = test: as above; type: in vitro ADME, canine; settings: dog; for efflux ratio at 120 min, 2 μM: read-out: ER
Method: as §1, §2, §3, §4

[2] = Pharmacokinetics in rats after intravenous and intragastric administration; settings: for bioavailability: F%
Method: Fifty-six pathogen-free Sprague-Dawley adult rats comprising 28 males and 28 females (weighing within the range of 200–250 g) were obtained from Drug Safety Evaluation and Research Center of Shanghai University of Traditional Chinese Medicine. Animals were raised under an environmentally controlled breeding room for 7 days before commencing the experiments. Animals were housed in a well-lighted air-conditioned room (25 ± 1°C) under standard environmental conditions (12 h light-dark cycles) and given free access to rodent chow and tap water prior to the study. Rats were fasted for 12 h and provided free access to water prior to the experiments. All animal-use procedures were in accordance with the regulations for animal experimentation issued by the State Committee of Science and Technology of the People's Republic of China on 14 November 1988 and approved by the Animal Ethics Committee of Shanghai University of Traditional Chinese Medicine (No. SUTCM-2011-1107; Approval date: 10 November, 2011).
Forty rats with 20 males and 20 females were randomly divided into five groups of eight rats in each. […] Approximately 0.25 mL of blood sample was collected from the angular vein of each conscious rat and transferred into heparinized tubes at 0 (predose), 0.03, 0.08, 0.25, 0.5, 0.75, 1.0, 2.0, 4.0, 8.0, 12.0, and 24.0 h after administration. Rats had free access to water after 4.0 h of blood sample collection. Serial blood samples were immediately centrifuged at 3,000 rpm for 15 min, and 100 μL of the supernatant plasma layer was transferred into another new 1.5 mL centrifuge tube and stored at −80°C until analysis.
The maximum peak concentration (Cmax) and time of maximum plasma concentration (Tmax) were obtained directly from the observed concentration vs. time data.
(5) F=(AUC0−∞,oral×Doseiv)/(AUC0−∞,iv×Doseoral)×100%

[3] = with quinidine 0.1 mM (100 μM), + Quinidine 0.1 mM (MDR1)
[4] = with verapamil 0.1 mM (100 μM), + Verapamil 0.1 mM (MDR1)
[5] = with Ko143 0.01 mM (10 μM), + Ko143 0.01 mM (BCRP)
[6] = with apigenin 0.025 mM (25 μM), + Apigenin 0.025 mM (BCRP)
[7] = both, Sprague-Dawley, rat, in vivo, iv, 3.3 mg/kg
[8] = both, Sprague-Dawley, rat, in vivo, iv, 3.3 mg/kg, rats, i.v. 3.3 mg/kg
[9] = both, Sprague-Dawley, rat, in vivo, po, 40 mg/kg
[10] = both, Sprague-Dawley, rat, in vivo, po, 40 mg/kg, rats, p.o. 40.0 mg/kg
[11] = both, Sprague-Dawley, rat, in vivo, po, 40 mg/kg, rats, p.o. 40.0 mg/kg vs i.v. 3.3 mg/kg
[12] = both, Sprague-Dawley, rat, in vivo, po, 40 mg/kg, rats, harmine p.o. 40.0 mg/kg co-administered with probenecid 20.0 mg/kg
[13] = rats, harmine p.o. 40.0 mg/kg co-administered with probenecid 20.0 mg/kg

**Q.** Which results are given for `COc1ccc2c3c([nH]c2c1)C(C)=NCC3` [Harmaline]?
**A.** F-value (absolute bioavailability) [1]: 24.99%; efflux ratio at 120 min, 2 μM (SGLT1; read-out: ER): 1.29; Papp A→B at 120 min, 2 μM (MDR1; [3]): 20.1 ± 0.76 ×10⁻⁶ cm/s; Papp B→A at 120 min, 2 μM (MDR1; [3]): 22.5 ± 1.12 ×10⁻⁶ cm/s; efflux ratio at 120 min, 2 μM (MDR1; [3]): 1.12; Papp B→A at 120 min, 2 μM (MDR1; [4]): 21.9 ± 2.64 ×10⁻⁶ cm/s; efflux ratio at 120 min, 2 μM (MDR1; [4]): 1.05; Papp A→B at 120 min, 2 μM (OATs): 19.2 ± 1.29 ×10⁻⁶ cm/s; Papp B→A at 120 min, 2 μM (OATs): 19.2 ± 1.33 ×10⁻⁶ cm/s; efflux ratio at 120 min, 2 μM (OATs; read-out: ER): 1; efflux ratio at 120 min, 2 μM (BCRP; [5]): 1.16; Papp B→A at 120 min, 2 μM (BCRP; [6]): 23.7 ± 1.11 ×10⁻⁶ cm/s; efflux ratio at 120 min, 2 μM (BCRP; [6]): 1.16; Vd [2, 7]: 94.1 ± 102 L/kg; clearance [2, 7]: 173 mL/min/kg; k el [2, 7]: 6.39e-05 s⁻¹; AUC(0-t) [2, 8]: 299 ± 64.3 ng·h/mL; AUC(0-inf) [2, 8]: 307 ± 64.3 ng·h/mL; Cmax [2, 8]: 258 ± 64.9 ng/mL; MRT [2, 8]: 2.53 ± 1.42 h; Tmax [2, 8]: 0.03 h; k el [2, 9]: 5.56e-05 s⁻¹; AUC(0-t) [2, 10]: 644 ± 328 ng·h/mL; AUC(0-inf) [2, 10]: 666 ± 322 ng·h/mL; Cmax [2, 10]: 118 ± 59 ng/mL; bioavailability [2, 11]: 17.1 ± 10.1%; MRT [2, 10]: 6.24 ± 3.18 h; Tmax [2, 10]: 1.76 ± 1.11 h; Ka ([2]; rats, i.v. 3.3 mg/kg): 1.26 ± 0.83 h⁻¹; T1/2a ([2]; rats, i.v. 3.3 mg/kg): 1.24 ± 1.02 h; T1/2e ([2]; rats, i.v. 3.3 mg/kg): 4.05 ± 1.39 h; T1/2d ([2]; rats, i.v. 3.3 mg/kg): 1.57 ± 1.25 h; CL ([2]; rats, p.o. 40.0 mg/kg): 1244.488 ± 688.6782 mL/min/kg; Ka ([2]; rats, p.o. 40.0 mg/kg): 0.71 ± 0.38 h⁻¹; T1/2a ([2]; rats, p.o. 40.0 mg/kg): 1.74 ± 1.13 h; T1/2e ([2]; rats, p.o. 40.0 mg/kg): 5.13 ± 1.52 h; T1/2d ([2]; rats, p.o. 40.0 mg/kg): 2.40 ± 1.20 h; Vd ([2]; rats, p.o. 40.0 mg/kg): 705.97445 ± 595.53126 L/kg

**Q.** For `COc1ccc2c(c1)[nH]c1c(C)nccc12` [Harmine], which “F-value (absolute bioavailability)” value [1] is on record?
**A.** 5.33%

**Q.** And the Papp B→A at 120 min, 2 μM (SGLT1)?
**A.** 6.27 ± 0.78 ×10⁻⁶ cm/s

**Q.** What about the Papp A→B at 120 min, 2 μM (MDR1; [3]) of the same compound?
**A.** 4.43 ± 0.32 ×10⁻⁶ cm/s

**Q.** What about the Papp B→A at 120 min, 2 μM (MDR1; [3]) of the same compound?
**A.** 7.39 ± 0.32 ×10⁻⁶ cm/s

**Q.** What about the Papp B→A at 120 min, 2 μM (MDR1; [4]) of the same compound?
**A.** 7.67 ± 0.21 ×10⁻⁶ cm/s

**Q.** What about the Papp A→B at 120 min, 2 μM (OATs) of the same compound?
**A.** 4.74 ± 0.13 ×10⁻⁶ cm/s

**Q.** What about the Papp B→A at 120 min, 2 μM (BCRP; [5]) of the same compound?
**A.** 7.05 ± 0.16 ×10⁻⁶ cm/s

**Q.** And the Papp B→A at 120 min, 2 μM (BCRP; [6])?
**A.** 6.83 ± 1.01 ×10⁻⁶ cm/s

**Q.** And the Vd [2, 7]?
**A.** 10.4 ± 5.75 L/kg

**Q.** What about the clearance [2, 7] of the same compound?
**A.** 40.8 mL/min/kg

**Q.** And the k el [2, 7]?
**A.** 8.33e-05 s⁻¹

**Q.** What about the AUC(0-t) [2, 8] of the same compound?
**A.** 1260 ± 238 ng·h/mL

**Q.** What about the AUC(0-inf) [2, 8] of the same compound?
**A.** 1270 ± 239 ng·h/mL

**Q.** What about the Cmax [2, 8] of the same compound?
**A.** 2320 ± 663 ng/mL

**Q.** And the MRT [2, 8]?
**A.** 1.01 ± 0.3 h

**Q.** What about the Tmax [2, 8] of the same compound?
**A.** 0.03 h

**Q.** What about the k el [2, 9] of the same compound?
**A.** 1.39e-05 s⁻¹

**Q.** And the AUC(0-t) [2, 12]?
**A.** 292 ± 70.4 ng·h/mL

**Q.** What about the AUC(0-t) [2, 10] of the same compound?
**A.** 154 ± 46.5 ng·h/mL

**Q.** And the AUC(0-inf) [2, 12]?
**A.** 349 ± 76.7 ng·h/mL

**Q.** And the AUC(0-inf) [2, 10]?
**A.** 184 ± 57.4 ng·h/mL

**Q.** What about the Cmax [2, 12] of the same compound?
**A.** 98.9 ± 31.1 ng/mL

**Q.** And the Cmax [2, 10]?
**A.** 67 ± 34.3 ng/mL

**Q.** What about the bioavailability [2, 12] of the same compound?
**A.** 2.14 ± 0.59%

**Q.** What about the bioavailability [2, 11] of the same compound?
**A.** 1.09 ± 0.27%

**Q.** What about the MRT [2, 12] of the same compound?
**A.** 13.7 ± 3.54 h

**Q.** And the MRT [2, 10]?
**A.** 4.41 ± 1.03 h

**Q.** And the Tmax [2, 12]?
**A.** 0.79 ± 0.12 h

**Q.** And the Tmax [2, 10]?
**A.** 0.56 ± 0.13 h

**Q.** What about the “increase of F-value after probenecid co-administration” value ([2]; rats, harmine p.o. 40.0 mg/kg + probenecid 20.0 mg/kg vs harmine alone) of the same compound?
**A.** 1.96 folds

**Q.** And the CL [2, 13]?
**A.** 1966.7387 ± 409.9968 mL/min/kg

**Q.** And the Ka [2, 13]?
**A.** 0.73 ± 0.46 h⁻¹

**Q.** What about the Vd [2, 13] of the same compound?
**A.** 2464.53513 ± 990.15463 L/kg

**Q.** And the Ka ([2]; rats, i.v. 3.3 mg/kg)?
**A.** 2.71 ± 1.24 h⁻¹

**Q.** What about the CL ([2]; rats, p.o. 40.0 mg/kg) of the same compound?
**A.** 3890.6588 ± 936.7433 mL/min/kg

**Q.** And the Ka ([2]; rats, p.o. 40.0 mg/kg)?
**A.** 0.63 ± 0.42 h⁻¹

**Q.** What about the Vd ([2]; rats, p.o. 40.0 mg/kg) of the same compound?
**A.** 4761.64239 ± 1571.7721 L/kg
